The text below walks through data of patent US12673946B2, “Pyrimidin-4(3H)-one derivatives as TRPV4 antagonists” (RaQualia Pharma Inc., priority 2020, dated 2026).

The target in this assay is T1, human TRPV4 (Homo sapiens, UniProt Q9HBA0).
T1 construct: host or cells: tetracycline-inducible Flp-In T-REx 293 cells
Nature of the assay: Hypotonicity-induced Ca2+ influx (Fluo-4, FDSS). It is filed as cell-based. A digest of the protocol: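 Flp-In T-REx 293 cells with tetracycline-induced human TRPV4, loaded with Fluo-4 for 60 min at 25 °C. Compound added 5 min before hypotonic mannitol/CaCl2 solution. Ca2+ signal recorded for 4.5 min on FDSS.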

[1] abbreviates: Flp-In T-REx 293 cells expressing human TRPV4, examples listed under heading 'Human IC50<50 nM'.
The mark [2] stands for this setting: Flp-In T-REx 293 cells stably expressing human TRPV4, compounds listed by potency bin (<10 nM Tables 96-1/96-2, <3 nM Table 97).

T1 sequence (Q9HBA0 whole entry): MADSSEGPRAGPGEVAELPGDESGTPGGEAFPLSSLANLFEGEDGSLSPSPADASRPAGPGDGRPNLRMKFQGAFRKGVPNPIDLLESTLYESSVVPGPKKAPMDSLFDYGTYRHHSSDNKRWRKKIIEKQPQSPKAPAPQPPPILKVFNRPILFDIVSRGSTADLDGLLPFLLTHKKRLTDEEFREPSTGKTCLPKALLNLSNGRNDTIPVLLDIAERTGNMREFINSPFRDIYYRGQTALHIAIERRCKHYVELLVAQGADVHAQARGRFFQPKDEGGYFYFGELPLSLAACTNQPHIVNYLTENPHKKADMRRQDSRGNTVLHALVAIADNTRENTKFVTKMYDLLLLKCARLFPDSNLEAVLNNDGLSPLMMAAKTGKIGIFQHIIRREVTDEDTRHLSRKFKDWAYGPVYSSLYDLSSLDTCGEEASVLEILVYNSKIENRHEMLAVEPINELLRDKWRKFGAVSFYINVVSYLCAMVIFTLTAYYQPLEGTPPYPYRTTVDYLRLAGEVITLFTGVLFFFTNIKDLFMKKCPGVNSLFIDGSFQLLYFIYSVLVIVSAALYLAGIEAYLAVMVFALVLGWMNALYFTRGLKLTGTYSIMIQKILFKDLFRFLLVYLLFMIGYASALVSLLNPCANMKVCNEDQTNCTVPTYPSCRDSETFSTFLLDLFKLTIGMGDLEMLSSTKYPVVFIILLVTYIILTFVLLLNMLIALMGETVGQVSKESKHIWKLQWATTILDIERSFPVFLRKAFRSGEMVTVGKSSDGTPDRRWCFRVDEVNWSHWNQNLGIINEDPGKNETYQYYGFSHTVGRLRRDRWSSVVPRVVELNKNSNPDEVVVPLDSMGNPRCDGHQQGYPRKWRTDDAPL

A word on the IC50: it is the concentration that gives 50% inhibition. Low values mean inhibition by little substance, high ones a need for much substance. `O=C([C@H](O)c1cccc(-c2cc(F)cc(Cl)c2)c1)N1CCc2nc(C3(c4cccc(Cl)c4)CC3)[nH]c(=O)c2C1` [45-9] came in with an IC50 under setting [1] of less than 50 nM.

For the compound `O=C([C@H](O)c1cccc(-c2cc(Cl)cc(C(F)(F)F)c2)c1)N1CCc2nc(C3(c4cccc(Cl)c4)CC3)[nH]c(=O)c2C1` [45-10], the IC50 is, setting by setting: under setting [1], less than 50 nM; under setting [2], less than 10 nM.

Regarding `O=C([C@H](O)c1cccc(-c2cc(Cl)cc(OC(F)(F)F)c2)c1)N1CCc2nc(C3(c4cccc(Cl)c4)CC3)[nH]c(=O)c2C1` [45-11], the IC50 is, setting by setting: under setting [1], less than 50 nM; under setting [2], less than 10 nM.

Take `O=C(Cc1cccc(-c2cccc(OC(F)(F)F)c2)c1)N1CCc2nc(C3(c4cccc(Cl)c4)CC3)[nH]c(=O)c2C1` [45-12]: the IC50 is less than 50 nM under setting [1] and less than 10 nM under setting [2].

Turning to `CC(C)(C)c1cccc(-c2cccc(CC(=O)N3CCc4nc(C5(c6cccc(Cl)c6)CC5)[nH]c(=O)c4C3)c2)c1` [45-13], the IC50 was less than 50 nM under setting [1] and less than 10 nM under setting [2].

Take `CC(C)c1cncc(C2(c3nc4c(c(=O)[nH]3)CN(C(=O)[C@H](O)c3cccc(-c5ccc(C(C)(C)C)cc5)c3)CC4)CC2)c1` [47-1]: the IC50 is less than 50 nM under setting [1] and less than 10 nM under setting [2].

In the case of `CC(C)c1cncc(C2(c3nc4c(c(=O)[nH]3)CN(C(=O)[C@H](O)c3cccc(-c5ccc(C(F)(F)F)cc5)c3)CC4)CC2)c1` [47-2], the IC50 under setting [1] is less than 50 nM and the IC50 under setting [2] is less than 10 nM.

`CC(C)c1cncc(C2(c3nc4c(c(=O)[nH]3)CN(C(=O)[C@H](O)c3cccc(-c5ccc(F)cc5)c3)CC4)CC2)c1` [47-3] displayed an IC50 under setting [1] of less than 50 nM and a 50% inhibitory concentration (IC50) under setting [2] of less than 10 nM.

Consider `CC(C)c1cncc(C2(c3nc4c(c(=O)[nH]3)CN(C(=O)[C@H](O)c3cccc(-c5ccc(Cl)cc5)c3)CC4)CC2)c1` [47-4], for which the IC50 was less than 50 nM under setting [1] and less than 10 nM under setting [2].

For the compound `CC(C)c1cncc(C2(c3nc4c(c(=O)[nH]3)CN(C(=O)[C@H](O)c3cccc(-c5ccc(C(F)(F)F)nc5)c3)CC4)CC2)c1` [47-5], the IC50 runs as follows: under setting [1], less than 50 nM; under setting [2], less than 10 nM.

With `CC(C)c1cncc(C2(c3nc4c(c(=O)[nH]3)CN(C(=O)[C@H](O)c3cccc(-c5ccc(OC(F)(F)F)cc5)c3)CC4)CC2)c1` [47-6], the IC50 is less than 50 nM under setting [1] and less than 10 nM under setting [2].

In turn, `O=C(C(O)c1cccc(-c2cccc(C(F)(F)F)c2)n1)N1CCc2nc(C3(c4ccccc4)CC3)[nH]c(=O)c2C1` (stereo not drawn) [48-1] displayed an IC50 under setting [1] of less than 50 nM and an IC50 under setting [2] of less than 10 nM.

Take `O=C(C(O)c1cccc(-c2cccc(OC(F)(F)F)c2)n1)N1CCc2nc(C3(c4ccccc4)CC3)[nH]c(=O)c2C1` (stereo not drawn) [48-2]: the IC50 runs as follows: under setting [1], less than 50 nM; under setting [2], less than 10 nM.

As for `O=C(C(O)c1cccc(-c2ccnc(C(F)(F)F)c2)n1)N1CCc2nc(C3(c4ccccc4)CC3)[nH]c(=O)c2C1` (stereo not drawn) [48-3], the IC50 was less than 50 nM under setting [1] and less than 10 nM under setting [2].

With `O=C(C(O)c1cncc(-c2cccc(C(F)(F)F)c2)c1)N1CCc2nc(C3(c4ccccc4)CC3)[nH]c(=O)c2C1` (stereo not drawn) [48-4], the IC50 was less than 50 nM under setting [1] and less than 10 nM under setting [2].

Compound `O=C(C(O)c1cncc(-c2cccc(Cl)c2)c1)N1CCc2nc(C3(c4ccccc4)CC3)[nH]c(=O)c2C1` (stereo not drawn) [48-5] yielded an IC50 under setting [1] of less than 50 nM and an IC50 under setting [2] of less than 10 nM.

On to `O=C(C(O)c1cccc(-c2cccc(C3CC3)c2)n1)N1CCc2nc(C3(c4ccccc4)CC3)[nH]c(=O)c2C1` (stereo not drawn) [48-6], for which the IC50 is, setting by setting: under setting [1], less than 50 nM; under setting [2], less than 10 nM.

In the case of `O=C(C(O)c1cncc(-c2ccnc(C(F)(F)F)c2)c1)N1CCc2nc(C3(c4ccccc4)CC3)[nH]c(=O)c2C1` (stereo not drawn) [48-7], the IC50 under setting [1] is less than 50 nM.

Under setting [1], `O=C(C(O)c1cccc(-c2cccc(Cl)c2)n1)N1CCc2nc(C3(c4ccccc4)CC3)[nH]c(=O)c2C1` (stereo not drawn) [48-8] yielded an IC50 of less than 50 nM.

In the case of `CC(C)(C)c1cccc(-c2cccc(C(O)C(=O)N3CCc4nc(C5(c6ccccc6)CC5)[nH]c(=O)c4C3)n2)c1` (stereo not drawn) [48-9], under setting [1], the IC50 was less than 50 nM.
